Measurements reported in paper PMC9228089, “1,5-Benzothiazepine Derivatives: Green Synthesis, In Silico and In Vitro Evaluation as Anticancer Agents” (Molecules, 2022).

How the values were obtained:
Hep G-2 = experiment: MTT cytotoxicity assay, liver cancer cell line; format: cell-based, human
Method: (§1) HepG-2, and DU-145 human tumor cell lines were grown in DMEM medium supplemented with Glutamax-I and glucose. A pseudo-normal human embryonic liver cell line (L02) was used to study the cytotoxicity of the synthesized compounds. The cell culture medium was supplemented with fetal calf serum (10% v/v), penicillin (100 IU/mL), and streptomycin (100 µg/mL), then preserved at 37 °C.
(§2) A spectrophotometric MTT reagent assay was employed to assess the cytotoxic activity of the synthesized compounds. In brief, the grown cells (approx. 5 × 10^3 count) were placed in each well of a 96-well plate and 100 µL of the culture medium was added along with the synthesized compounds (1–100 µmol/L). The well plate was subjected to incubation for 72 h; later, 10 µL of MTT (5 mg/mL) was added to each well. The well plate was further incubated for 4 h at 37 °C. The resulting insoluble formazan was dissolved by adding sodium dodecyl sulfate (100 µL, 10%) to each well and continuing incubation for an additional 12 h. Later, the 96-well plate was used to measure the absorbance at the 540 nm and 630 nm reference wavelengths using the spectrophotometer. The blank absorbance was treated as a control and the IC50 values were determined by a non-linear regression model with the help of normalized dose-response data acquired via MTT assay.

DU-145 = experiment: MTT cytotoxicity assay, prostate cancer cell line; format: cell-based, human
Method: as §1, §2

L02 = experiment: MTT cytotoxicity assay, embryonic liver cell line (selective toxicity); format: cell-based; conditions: for inhibition at 100 µM: L02, human embryonic liver cell line
Method: as §1, §2

GSK-3β = GSK-3β (Homo sapiens, UniProt P49841); experiment: GSK-3β inhibitory assay (Kinase-Glo luminescence); conditions: for inhibition at 50 µM: read-out: % of Inhibition at 50 µM, 50 µM, triplicate
GSK-3β, sequence (P49841 whole entry): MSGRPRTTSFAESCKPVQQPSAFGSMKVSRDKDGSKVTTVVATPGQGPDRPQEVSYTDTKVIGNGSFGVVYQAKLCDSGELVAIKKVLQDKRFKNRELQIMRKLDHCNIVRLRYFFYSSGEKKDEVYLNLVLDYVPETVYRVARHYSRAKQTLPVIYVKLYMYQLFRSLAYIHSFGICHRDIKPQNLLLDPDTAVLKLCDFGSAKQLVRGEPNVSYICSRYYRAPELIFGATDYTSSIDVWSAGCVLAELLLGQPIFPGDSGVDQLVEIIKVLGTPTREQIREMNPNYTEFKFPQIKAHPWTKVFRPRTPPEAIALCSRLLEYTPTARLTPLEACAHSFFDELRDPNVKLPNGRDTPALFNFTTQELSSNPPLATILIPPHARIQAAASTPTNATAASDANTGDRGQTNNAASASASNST
Method: Briefly, the assay procedure was as follows. […] The activity was determined by the difference between total and consumed ATP. The inhibition activity was determined using the maximal activity in the absence of the inhibitor and the maximal inhibition in the presence of the reference drug. IC50 values were determined using the GraphPad Prism 4.0 tool (GraphPad Software Inc., San Diego, CA, USA).

SMILES	IC50 (Hep G-2; Homo sapiens, HepG2, 72 h) [µM]	IC50 (DU-145; Homo sapiens, DU-145, 72 h) [µM]	inhibition at 100 µM (L02) [%]	melting point [°C]	inhibition at 50 µM (GSK-3β) [%]	IC50 (Hep G-2; 72 h) [µM]	IC50 (DU-145; 72 h) [µM]	% Inhibition (100 µM) L02 (L02; human embryonic liver cell line) [%]	% of Inhibition at 50 µM (GSK-3β) [%]
Cc1ccc2c(c1)N=C(c1cc(Cl)cc(Cl)c1O)CC(c1ccc(N(C)C)cc1)S2 (stereo not drawn) [2c, 2,4-dichloro-6-(2-(4-(dimethylamino)phenyl)-7-methyl-2,3-dihydrobenzo[b][1,4]thiazepin-4-yl)phenol]	3.29 ± 0.15	20.45 ± 0.19	19.3 ± 1.25	222 to 224	> 90	–	–	–	–
CN(Cc1cnc2nc(N)nc(N)c2n1)c1ccc(C(=O)N[C@@H](CCC(=O)O)C(=O)O)cc1 [Methotrexate, reference compound]	4.68 ± 0.17	21.96 ± 0.15	78.2 ± 1.86	–	–	–	–	–	–
Cc1ccc2c(c1)N=C(c1cc(Br)cc(I)c1O)CC(c1ccc(N(C)C)cc1)S2 (stereo not drawn) [2h, 4-bromo-2-(2-(4-(dimethylamino)phenyl)-7-methyl-2,3-dihydrobenzo[b][1,4]thiazepin-4-yl)-6-iodophenol]	8.56 ± 0.14	36.8 ± 0.18	46.1 ± 1.05	244 to 246	61.9 ± 3.47	–	–	–	–
Cc1ccc2c(c1)N=C(c1cc(Cl)cc(Br)c1O)CC(c1ccc(N(C)C)cc1)S2 (stereo not drawn) [2f, 2-bromo-4-chloro-6-(2-(4-(dimethylamino)phenyl)-7-methyl-2,3-dihydrobenzo [b][1,4]thiazepin-4-yl)phenol]	4.38 ± 0.11	24.58 ± 0.13	28.4 ± 1.18	244 to 246	89.7 ± 1.65	–	–	–	–
Cc1ccc2c(c1)N=C(c1cc(Cl)cc(I)c1O)CC(c1ccc(N(C)C)cc1)S2 (stereo not drawn) [2d, 4-chloro-2-(2-(4-(dimethylamino)phenyl)-7-methyl-2,3-dihydrobenzo[b][1,4]thiazepine-4-yl)-6-iodophenol]	7.89 ± 0.22	36.17 ± 0.14	31.4 ± 1.14	244 to 246	61.1 ± 1.98	–	–	–	–
Cc1ccc2c(c1)N=C(c1cc(C)cc(I)c1O)CC(c1ccc(N(C)C)cc1)S2 (stereo not drawn) [2b, 2-(2-(4-(dimethylamino)phenyl)-7-methyl-2,3-dihydrobenzo[b][1,4]thiazepin-4-yl)-6-iodo-4-methylphenol]	8.26 ± 0.26	41.34 ± 0.12	19.6 ± 0.97	218 to 220	60.7 ± 2.85	–	–	–	–
Cc1ccc2c(c1)N=C(c1cc(Br)cc(Br)c1O)CC(c1ccc(N(C)C)cc1)S2 (stereo not drawn) [2g, 2,4-dibromo-6-(2-(4-(dimethylamino)phenyl)-7-methyl-2,3-dihydrobenzo[b][1,4]hiazepine-4-yl)phenol]	–	–	–	–	–	8.32 ± 0.16	28.53 ± 0.14	15.56 ± 1.29	87.62 ± 2.54
Cc1ccc2c(c1)N=C(c1cc(C)cc(Br)c1O)CC(c1ccc(N(C)C)cc1)S2 (stereo not drawn) [2e, 2-bromo-6-(2-(4-(dimethylamino)phenyl)-7-methyl-2,3-dihydrobenzo[b][1,4]thiazepine-4-yl)-4-methylphenol]	6.87 ± 0.15	37.52 ± 0.27	52.2 ± 1.42	244 to 246	66.6 ± 2.51	–	–	–	–
Cc1ccc2c(c1)N=C(c1cc(I)cc(I)c1O)CC(c1ccc(N(C)C)cc1)S2 (stereo not drawn) [2a, 2-(2-(4-(dimethylamino)phenyl)-7-methyl-2,3-dihydrobenzo[b][1,4]thiazepin-4-yl)-4,6-diiodophenol]	7.52 ± 0.13	32.74 ± 0.13	28.2 ± 1.68	230 to 232	62.4 ± 2.21	–	–	–	–
